Results from US20250228865A1, “COMPOUNDS FOR ENHANCING READ THROUGH OF GENES CONTAINING PREMATURE TERMINATION CODONS AND METHODS FOR MAKING AND USING THE SAME” (Sanofi US Services Inc., priority 2022, published 2025).

Legend:
[1] = tested on: CFTR R1162X; assay: Functional CFTR channel activity, TECC-24 electrophysiology, 16HBE cells (CFTR R1162X readthrough); format: cell-based, human; details: G418 10 uM
Experimental: (§1) 16HBE human bronchial epithelial cells were seeded onto Transwell 24-well filter inserts coated with human collagen type IV. Cells were seeded 7 days prior to functional testing at a density of 1.7×10^5 cells onto the “apical” chamber filter of the Transwell insert. Cells were grown as submerged cultures (200 μL apical/700 μL basolateral) in Minimal Essential Medium (MEM) containing 10% qualified Fetal Bovine Serum and 1% Penicillin/Streptomycin and incubated at 37° C. and 5% CO2. Growth media on cells was replenished with fresh media every 1-3 days prior to test agent treatment day. After 7 days in culture, the CFTR-mediated chloride (Cl^−) equivalent current (Ieq) of the 16HBE cells was recorded, which may typically form electrically tight epithelia with a transepithelial resistance (Rt) of 2000-6000 Ω·cm2 as described below. Forty-eight hours prior to electrophysiological measurements, fresh growth media containing the test agents was applied to both chambers separating filter bound epithelial monolayer.
(§2) On the day of electrophysiology studies, electrodes of a “Multi-(24-channel) transepithelial current clamp amplifier” (MTECC-24 (TECC-24 for short), EP Devices, Belgium) were soaked in an assay buffer (see below for composition) for at least 2 hours using 24-well Transwell plates without inserts. Cell culture media was replaced in the Transwell assay plates with assay buffer (see below) and the plates were mounted onto a custom-built automated robotic assay platform (Yamaha RCX240S controller) with heated plate holders set at 37° C. for 60 min. After equilibration, transepithelial potential difference (PD) and resistance (Rt) was monitoredat ˜5 min intervals using the TECC-24 transepithelial current clamp. Electrode potential differences were monitored for each pair of Ag/AgCl voltage electrodes by taking voltage measurements from a control (“blank”) plate with matching buffer solutions and 16HBE cells that were not treated with any test agent. PD values for each electrode pair were subtracted from the blank plate from that of the test plates at each time point. Ieq was calculated from the corrected PD values and Rt using Ohm's law. Ieq values were slope corrected to account for measurement drift over time using the equation: Slope corrected value=calculated Ieq−((time x slope)+y-intercept) with the slope and y-intercept calculated from the data points captured during the initial baseline period and following addition of the CFTR inhibitor.
(§3) The equivalent current (Ieq) traces associated with CFTR channel activation were plotted as baseline subtracted mean±standard deviation from 3-4 separate wells on the 24-well Transwell (n=3-4). There are 4 recording periods, with the first set of data points recorded baseline Ieq currents prior to sequential activation of available CFTR channels with forskolin (10 μM) and then in combination with potentiator VX-770/ivacaftor (1 μM). Recorded the last set of data points in the presence of CFTR inhibitor CFTRinh-172 (20 μM) to confirm that currents are mediated via activation of CFTR channels. The test agents and control/reference compounds were pre-diluted to 10-fold concentrations in assay buffer and added manually using a multi-channel pipette to both the basolateral and apical side of the membrane (test plates only). Employed CFTR-mediated changes in Ieq, (i.e. forskolin/VX-770 activated currents) to measure functional CFTR surface expression or treatment-related functional rescue of mutant CFTR.
(§4) The magnitude of test agent mediated enhancement of functional CFTR currents was calculated by comparing forskolin/VX-770 stimulated Ieq relative to baseline/CFTRinh-172 Ieq following 48 hour pretreatment with test agent(s) and normalizing to the forskolin/VX-770 stimulated Ieq determined following 48 hour pretreatment with a maximally effective concentration a reference control aminoglycoside agent (typically 110 μM G418). […]

[2] = tested on: CFTR G542X; assay: Functional CFTR channel activity, TECC-24 electrophysiology, 16HBE cells (CFTR G542X readthrough); format: cell-based, human
Experimental: as §1, §2, §3, §4

[3] = RTM 5 uM, eRF3 modulator (CC-90009) 10 uM
[4] = RTM 1 uM, no eRF3 modulator, ELX-02 100 uM
[5] = RTM conc. —, eRF3 modulator (CC-90009) 1 uM, ELX-02 100 uM
[6] = RTM 1 uM, eRF3 modulator (CC-90009) 1 uM, ELX-02 100 uM

In the case of `Cc1cccc(C(F)(F)F)c1COc1ccc(N2CC(CO)OC2=O)cc1` (stereo not drawn) [drawing 816], the “Currents (% of 110 μM G418 (Max effect))” value ([1]; RTM 1 uM, eRF3 modulator (CC-90009) 1 uM) is reported as 423 % of 110 μM G418 (Max effect).
`O=C1O[C@H](CO)CN1c1ccc(OCc2c(Cl)cccc2Cl)cc1` [drawing 817] was tested, and the “Currents (% of 110 μM G418 (Max effect))” value ([1]; RTM 5 uM, no eRF3 modulator) was 54 % of 110 μM G418 (Max effect).
`O=C1O[C@H](CO)CN1c1ccc(OCc2c(Cl)cccc2Cl)cc1` [drawing 818] was tested, and the “Currents (% of 110 μM G418 (Max effect))” value [1, 3] was 314 % of 110 μM G418 (Max effect).
`O=C1O[C@@H](CO)CN1c1ccc(OCc2c(Cl)cccc2Cl)cc1` [drawing 819] was tested, and the “Currents (% of 110 μM G418 (Max effect))” value ([1]; RTM 5 uM, no eRF3 modulator) was 81 % of 110 μM G418 (Max effect).
For `O=C1O[C@@H](CO)CN1c1ccc(OCc2c(Cl)cccc2Cl)cc1` [drawing 820], the “Currents (% of 110 μM G418 (Max effect))” value [1, 3] was 320 % of 110 μM G418 (Max effect).
`OCc1cn(-c2ncc(OCc3c(Cl)cccc3Cl)cn2)cn1` [drawing 821] was tested, and the “Currents (% of 110 μM G418 (Max effect))” value ([2]; RTM 0.5 uM, no eRF3 modulator, G418 10 uM) was 78 % of 110 μM G418 (Max effect).
For `OCc1cn(-c2ncc(OCc3c(Cl)cccc3Cl)cn2)cn1` [drawing 822], the “Currents (% of 110 μM G418 (Max effect))” value ([2]; RTM 0.5 uM, eRF3 modulator (CC-90009) 1 uM, G418 10 uM) was 429 % of 110 μM G418 (Max effect).
With `OCc1cn(-c2ncc(OCc3c(Cl)cccc3Cl)cn2)cn1` [drawing 823] the “Currents (% of 110 μM G418 (Max effect))” value ([2]; RTM 0.5 uM, no eRF3 modulator, ELX-02 100 uM) was 50 % of 110 μM G418 (Max effect).
With `OCc1cn(-c2ncc(OCc3c(Cl)cccc3Cl)cn2)cn1` [drawing 824] the “Currents (% of 110 μM G418 (Max effect))” value ([2]; RTM 0.5 uM, eRF3 modulator (CC-90009) 1 uM, ELX-02 100 uM) was 421 % of 110 μM G418 (Max effect).
With `OCc1ccn(-c2ncc(OCc3c(Cl)cccc3Cl)cn2)n1` [drawing 825] the “Currents (% of 110 μM G418 (Max effect))” value [2, 4] was 94 % of 110 μM G418 (Max effect).
With `OCc1ccn(-c2ncc(OCc3c(Cl)cccc3Cl)cn2)n1` [drawing 826] the “Currents (% of 110 μM G418 (Max effect))” value [2, 5] was 83 % of 110 μM G418 (Max effect).
For `OCc1ccn(-c2ncc(OCc3c(Cl)cccc3Cl)cn2)n1` [drawing 827], the “Currents (% of 110 μM G418 (Max effect))” value [2, 6] was 278 % of 110 μM G418 (Max effect).
`Cc1cccc(C(F)(F)F)c1COc1ccc(-c2nc(CO)n[nH]2)cc1` [drawing 828] was tested, and the “Currents (% of 110 μM G418 (Max effect))” value [2, 4] was 109 % of 110 μM G418 (Max effect).
With `Cc1cccc(C(F)(F)F)c1COc1ccc(-c2nc(CO)n[nH]2)cc1` [drawing 829] the “Currents (% of 110 μM G418 (Max effect))” value [2, 5] was 83 % of 110 μM G418 (Max effect).
In the case of `Cc1cccc(C(F)(F)F)c1COc1ccc(-c2nc(CO)n[nH]2)cc1` [drawing 830], the “Currents (% of 110 μM G418 (Max effect))” value [2, 6] is reported as 263 % of 110 μM G418 (Max effect).
In the case of `O=C1N[C@H](CO)CN1c1ccc(OCc2c(Cl)cccc2Cl)cn1` [drawing 831], the “Currents (% of 110 μM G418 (Max effect))” value [2, 4] is reported as 79 % of 110 μM G418 (Max effect).
For `O=C1N[C@H](CO)CN1c1ccc(OCc2c(Cl)cccc2Cl)cn1` [drawing 832], the “Currents (% of 110 μM G418 (Max effect))” value [2, 5] was 83 % of 110 μM G418 (Max effect).
With `O=C1N[C@H](CO)CN1c1ccc(OCc2c(Cl)cccc2Cl)cn1` [drawing 833] the “Currents (% of 110 μM G418 (Max effect))” value [2, 6] was 293 % of 110 μM G418 (Max effect).
With `OCc1ncn(-c2ncc(OCc3c(Cl)cccc3C(F)(F)F)cn2)n1` [drawing 834] the “Currents (% of 110 μM G418 (Max effect))” value ([2]; RTM 3 uM, no eRF3 modulator, ELX-02 100 uM) was 111 % of 110 μM G418 (Max effect).
For `OCc1ncn(-c2ncc(OCc3c(Cl)cccc3C(F)(F)F)cn2)n1` [drawing 835], the “Currents (% of 110 μM G418 (Max effect))” value [2, 5] was 60 % of 110 μM G418 (Max effect).
In the case of `OCc1ncn(-c2ncc(OCc3c(Cl)cccc3C(F)(F)F)cn2)n1` [drawing 836], the “Currents (% of 110 μM G418 (Max effect))” value ([2]; RTM 3 uM, eRF3 modulator (CC-90009) 1 uM, ELX-02 100 uM) is reported as 263 % of 110 μM G418 (Max effect).
